Source: patent publication US20150329519A1, “Formulations Comprising Lipoyl Compounds” (Ischemix, LLC, priority 2014, published 2015)

How the values were obtained:
[1] = system: myocardial damage associated with percutaneous coronary intervention; details: human trial, Kates et al. 2014; cited from earlier work
[2] = Polymer content by HPLC area counts after formulation or salt formation; assay type: physicochemical
Method: The purity of a lipoyl compound was analyzed by reversed-phase high performance liquid chromatography (HPLC). Mobile phase A was 0.1% triflouroacetic acid (TFA) in H2O and mobile phase B was 0.1% TFA in acetontrile (ACN). A linear gradient of 85:15 to 26:74 over 22 minutes at a flow rate of 1.5 mL/min at 30° C. was used. A lipoyl compound was diluted in ethanol:water (1:1) at a concentration of 1 mg/mL and a 25 μL aliquot was injected onto the HPLC. The sample was detected at 220 nm.
The initial procedure used to formulate (R)Lip-EA-OH consisted of the following sequence: • 1. Neutralize solid (R)Lip-EA-OH by treatment with aqueous sodium bicarbonate or sodium hydroxide; • 2. Dilute with water and saline to near the final volume and concentration; and • 3. Adjust pH and add water to final volume and concentration.
This formulation procedure was used effectively to prepare formulation from multiple lots of (R)Lip-EA-OH that were synthesized at scales below 50 g. As the synthetic process was scaled-up, however, partial polymerization of (R)Lip-EA-OH was observed during formulation. […]
Since (R)Lip-EA-OH was converted to the corresponding bis-sodium salt in situ during formulation, a procedure for synthesizing the bis-sodium salt of (R)Lip-EA-OH was examined. […] The isolated polymer was treated with the reducing agent dithiothreitol (DTT), and the resulting sample was analyzed by HPLC. […]

[3] = system: patients with stable coronary artery disease undergoing elective stent placement by PCI; assay: Randomized placebo-controlled study of single IV dose in patients undergoing elective stent placement by PCI (CK-MB, Troponin-T); assay type: in vivo, human; details: for Troponin-T (ng/mL) - Change from baseline (FAP population), Mean / Troponin-T (ng/mL) - Change from baseline (FAP population), Median / Troponin-T (ng/mL), Mean / Troponin-T (ng/mL), Median: Day 1 (24 hours)
Method: A prospective, multi-center, blinded, randomized, placebo-controlled study to evaluate single dose regimens of a 10 mg/mL (R)Lip-EA-OH formulation for IV administration or single dose placebo in patients with stable coronary artery disease undergoing elective stent placement by PCI meeting all the eligibility criteria was conducted. The (R)Lip-EA-OH formulation was made in accordance with Example 3 and was administered at one of three doses: 0.8 mg/kg, 1.6 mg/kg and 2.4 mg/kg. The primary objective was to assess the safety of the (R)Lip-EA-OH formulation, ascertained by measuring the changes in CK-MB values up to 24 hours after the last balloon inflation. The secondary objective was to evaluate reduction of myocardial injury associated with stent PCI, as determined by serial measurements of cardiac biomarkers and as determined by continuous and serial ECG readings.
The primary outcome measure was the change in CK-MB at 24 hours after the last balloon inflation and it served as a surrogate marker for myocardial injury considered for safety and efficacy. CK-MB levels were measured on Day 1 at 0, 6, 12, 18, and 24 hours after the last balloon inflation.
The maximum serum concentration of CK-MB (Cmax) is calculated by subtracting the baseline value from the maximum concentration of CK-MB measured at any time point. CK-MB Cmax is correlated to the extent of myocardial injury associated with the PCI. The greatest Cmax value observed was in the placebo group.

[4] = 2.4 mg/kg dose group compared with other groups
[5] = 0.8, 1.6 or 2.4 mg/kg versus placebo, following PCI

For `C[C@H](NC(=O)[C@H](CCC(=O)O)NC(=O)CCCC[C@@H]1CCSS1)C(=O)O` [(R)Lip-EA-OH, α-N—[(R)-1,2-diothiolane-3-pentanoyl]-L-glutamyl-L-alanine], the “Protection against myocardial damage associated with percutaneous coronary intervention” value [1] is listed as “statistically significant protection”, the “Polymer based upon HPLC area counts” value ([2]; after formulation by the initial procedure (solid neutralized, then diluted), FIG. 1) is listed as greater than 20% and the “Polymer by HPLC area count analysis” value ([2]; initially, before formulation) is listed as less than 0.1%. For the same compound, the “CK-MB (ng/mL) - Change from Baseline, Mean” value (shortened to “CK-MB (ng/mL) - Change”) ([3]; 0.8 mg/kg single IV dose of 10 mg/mL formulation, 6 hr after last balloon inflation) was 0.12 ng/mL, the “CK-MB (ng/mL) - Change” value ([3]; 0.8 mg/kg single IV dose of 10 mg/mL formulation, 12 hr after last balloon inflation) was 1.63 ng/mL and the “CK-MB (ng/mL) - Change” value ([3]; 0.8 mg/kg single IV dose of 10 mg/mL formulation, 18 hr after last balloon inflation) was 1.87 ng/mL. For the same compound, the “CK-MB (ng/mL) - Change” value ([3]; 0.8 mg/kg single IV dose of 10 mg/mL formulation, 24 hr after last balloon inflation) was 1.80 ng/mL, the “Troponin-T (ng/mL) - Change from baseline (FAP population), Mean” value (shortened to “Troponin-T (ng/mL) - Change … Mean”) ([3]; 0.8 mg/kg) was 0.041 ng/mL and the “Troponin-T (ng/mL) - Change from baseline (FAP population), Median” value (“Troponin-T (ng/mL) - Change … Median” below) ([3]; 0.8 mg/kg) was 0.000 ng/mL. The “Troponin-T (ng/mL), Mean” value ([3]; 0.8 mg/kg) was 0.042 ng/mL, the “Troponin-T (ng/mL), Median” value ([3]; 0.8 mg/kg) was 0.000 ng/mL and the “CK-MB (ng/mL) - Change” value ([3]; 1.6 mg/kg single IV dose of 10 mg/mL formulation, 6 hr after last balloon inflation) was 0.76 ng/mL. For the same compound, the “CK-MB (ng/mL) - Change” value ([3]; 1.6 mg/kg single IV dose of 10 mg/mL formulation, 12 hr after last balloon inflation) was 1.95 ng/mL, the “CK-MB (ng/mL) - Change” value ([3]; 1.6 mg/kg single IV dose of 10 mg/mL formulation, 18 hr after last balloon inflation) was 2.55 ng/mL and the “CK-MB (ng/mL) - Change” value ([3]; 1.6 mg/kg single IV dose of 10 mg/mL formulation, 24 hr after last balloon inflation) was 2.54 ng/mL. For the same compound, the “Troponin-T (ng/mL) - Change … Mean” value ([3]; 1.6 mg/kg) was 0.068 ng/mL, the “Troponin-T (ng/mL) - Change … Median” value ([3]; 1.6 mg/kg) was 0.000 ng/mL and the “Troponin-T (ng/mL), Mean” value ([3]; 1.6 mg/kg) was 0.066 ng/mL. The “Troponin-T (ng/mL), Median” value ([3]; 1.6 mg/kg) was 0.000 ng/mL, the “CK-MB Cmax as an indicator of injury” value [3, 4] was “least amount of injury” and the “Efficacy markers of periprocedural injury (changes in Troponin-T, CK-MB AUC0-24, Cmax of CK-MB)” value [3, 4] was “lowest”. For the same compound, the “CK-MB (ng/mL) - Change” value ([3]; 2.4 mg/kg single IV dose of 10 mg/mL formulation, 6 hr after last balloon inflation) was -0.10 ng/mL, the “CK-MB (ng/mL) - Change” value ([3]; 2.4 mg/kg single IV dose of 10 mg/mL formulation, 12 hr after last balloon inflation) was 0.10 ng/mL and the “CK-MB (ng/mL) - Change” value ([3]; 2.4 mg/kg single IV dose of 10 mg/mL formulation, 18 hr after last balloon inflation) was 0.30 ng/mL. The “CK-MB (ng/mL) - Change” value ([3]; 2.4 mg/kg single IV dose of 10 mg/mL formulation, 24 hr after last balloon inflation) was 0.44 ng/mL, the “Troponin-T (ng/mL) - Change … Mean” value ([3]; 2.4 mg/kg) was 0.018 ng/mL and the “Troponin-T (ng/mL) - Change … Median” value ([3]; 2.4 mg/kg) was 0.000 ng/mL. For the same compound, the “Troponin-T (ng/mL), Mean” value ([3]; 2.4 mg/kg) was 0.019 ng/mL, the “Troponin-T (ng/mL), Median” value ([3]; 2.4 mg/kg) was 0.000 ng/mL and the “Maximum CK-MB change from baseline (FIG. 3)” value [3, 5] was “less myocardial injury than patients in the placebo group”. The “Troponin T change from baseline in the full analysis population (FIG. 4)” value [3, 5] was “less myocardial injury than patients in the placebo group” and the “Efficacy in reducing myocardial injury / cardioprotective action” value ([3]; patients undergoing stent PCI, 0.8, 1.6 or 2.4 mg/kg) was “demonstrated efficacy in reducing the myocardial injury”.
